Molecules are shown by their SMILES.

11β-hsd-1 enzyme, sequence (P28845 whole entry, species assumed): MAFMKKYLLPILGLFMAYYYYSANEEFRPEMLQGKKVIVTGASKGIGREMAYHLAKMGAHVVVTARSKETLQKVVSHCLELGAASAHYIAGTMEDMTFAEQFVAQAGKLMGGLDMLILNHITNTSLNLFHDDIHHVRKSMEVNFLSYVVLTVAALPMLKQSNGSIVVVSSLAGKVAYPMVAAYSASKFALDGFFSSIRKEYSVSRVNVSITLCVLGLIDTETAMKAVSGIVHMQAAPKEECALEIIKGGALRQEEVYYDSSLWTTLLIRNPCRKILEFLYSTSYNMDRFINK

One assay has as its target 11β-hsd-1 enzyme (Homo sapiens, UniProt P28845). Briefly: biochemical. Conditions: Table 2; inhibitor 0.1 mM as printed. As for the experimental part:
Percentage of inhibition was determined in a 100 mM Triethanolamine buffer, pH 8.0, 200 mM NaCl, 0.02% n-dodecyl β-D-maltoside and 5 mM β-ME. A typical reaction was carried on a Corning® u-bottom 96-well plate and is described as follows: 11β-hsd-1 enzyme (5 nM, final concentration) was pre-incubated in the presence of the inhibitor and NADPH (500 μM, final concentration) for at least 30 minutes
in the assay buffer. When pre-incubation was completed, the reaction was initiated by adding the regenerating system (2 mM Glucose-6-Phosphate, 1U/mL Glucose-6-Phosphate dehydrogenase, and 6 mM MgCl2, all the concentration reported are final in the assay buffer), and 3H-cortisone (200 nM, final concentration). After 60 minutes, 60 μL of the assay mixture was transferred to a second 96-well plate and mixed with an equal volume of dimethylsulfoxide to stop the reaction. A 15 μL aliquot from the reaction mixture was loaded into a C-18 column (Polaris C18-A, 50×4.6 mm, 5 μ, 180 Angstrom from Varian) connected to an automated High-throughput Liquid Chromatography instrument developed by Cohesive Technologies Inc of Franklin, Mass., with a […] model 3 Radio-HPLC detector from IN/US of Tampa, Fla. The substrate and product peaks were separated by using an isocratic mixture of 43:57 methanol to water (v/v) at a flow rate of 1.0 mL/min.
Percent Inhibition was calculated based on the following equation: (1-(3H-Cortisol peak area in the […] of inhibitor)×100).
As to `CCc1cccc(NS(=O)(=O)N2C[C@@H]3[C@H](C2)C3(C#N)N2CCOCC2)n1` (stereo partly shown) [Example 115, (1R*5S*6S*)-6-cyano-N-(6-ethylpyridin-2-yl)-6-morpholin-4-yl-3-azabicyclo[3.1.0]hexane-3-sulfonamide], the “% Inh @ 0.1 mM” value was 0%.

The same assay, now with this note: read-out: % Inh @ 0.1 μM.
In the case of `CCc1cccc(NS(=O)(=O)N2CCC(c3ncccn3)CC2)n1` [Example 60, N-(6-ethylpyridin-2-yl)-4-pyrimidin-2-ylpiperidine-1-sulfonamide], the inhibition at 0.1 µM amounted to 7%.

For `Cc1cc(N)nc(NS(=O)(=O)N2CCn3c(nc4ccccc43)C2)c1` [Example 50], the inhibition at 0.1 µM turned out to be 100%.

For `CCc1cccc(NS(=O)(=O)N2CCC3(CCc4cc(Cl)ccc4O3)CC2)n1` [Example 63], the inhibition at 0.1 µM was 40%.

On to `CCc1cccc(NS(=O)(=O)N2CCC3(CC2)CC(=O)c2cc(Cl)ccc2O3)n1` [Example 65], for which the inhibition at 0.1 µM is 4.7%.

In the case of `CCc1cccc(NS(=O)(=O)N2CCC3(CCc4cc(C)ccc4O3)CC2)n1` [Example 64], the inhibition at 0.1 µM came out at 5.4%.

As to `Cc1cc(C)nc(NS(=O)(=O)N2CCc3ccc(S(C)(=O)=O)cc3CC2)c1` [Example 41], the inhibition at 0.1 µM was found to be 55%.

With `CCc1cccc(NS(=O)(=O)N2CCC3(CCc4ccccc4O3)CC2)n1` [Example 66], the inhibition at 0.1 µM was 42.8%.

Turning to `CCc1cccc(NS(=O)(=O)N2CCN(C(C)C)CC2)n1` [Example 61], the inhibition at 0.1 µM worked out at 0%.

Consider `Cc1cc(N)nc(NS(=O)(=O)N2CCn3c(nc4cccc(C)c43)C2)c1` [Example 49], for which the inhibition at 0.1 µM worked out at 100%.

Regarding `Cc1cccc(NS(=O)(=O)N2CCOCC2c2ccc(F)cc2)n1` (stereo not shown) [Example 21], the inhibition at 0.1 µM is 10.6%.

Turning to `CCc1cccc(NS(=O)(=O)N2CCN(C3CCCCC3)CC2)n1` [Example 62], the inhibition at 0.1 µM turned out to be 0%.

Take `CCc1cccc(NS(=O)(=O)N2CCC(c3c[nH]c4ccccc34)CC2)n1` [Example 67]: the inhibition at 0.1 µM stood at 62.6%.

Consider `Cc1cc(N)cc(NS(=O)(=O)N2CCC(Oc3ccccc3)CC2)c1` [Example 55], for which the inhibition at 0.1 µM was 92%.

As for `C[C@@H]1CN(S(=O)(=O)Nc2cccc(CO)n2)CCN1c1ncc(F)cn1` [Example 40, (3R)-4-(5-fluoropyrimidin-2-yl)-N-[6-(hydroxymethyl)pyridin-2-yl]-3-methylpiperazine-1-sulfonamide], the inhibition at 0.1 µM was 100%.

As to `CC1CN(c2ccc(C#N)cn2)CCN1S(=O)(=O)Nc1cccc(CO)n1` (stereo not shown) [Example 59, 4-(5-cyanopyridin-2-yl)-N-[6-(hydroxymethyl)pyridin-2-yl]-2-methylpiperazine-1-sulfonamide], the inhibition at 0.1 µM was determined as 94.2%.

In the case of `CCc1cccc(NS(=O)(=O)N2C[C@@H]3C[C@H]2CN3c2ccccc2)n1` [Example 69], the inhibition at 0.1 µM stood at 5.6%.

The assay is the same for the next values; noted with them: read-out: % Inh @ 0.1 mM.
Take `CCc1cccc(NS(=O)(=O)N2CCN(c3ccc(C(=O)NC(C)C)cn3)CC2)n1` [Example 146, 6-(4-{[(6-ethylpyridin-2-yl)amino]sulfonyl)piperazin-1-yl)-N-isopropylnicotinamide]: the inhibition came out at 30.4%.

Take `O=S(=O)(Nc1ccc2ccccc2n1)N1CCN(c2ncccc2C(F)(F)F)CC1` [Example 159, N-quinolin-2-yl-4-[3-(trifluoromethyl)pyridin-2-yl]piperazine-1-sulfonamide]: the inhibition came to 53.4%.

Turning to `CCc1cccc(NS(=O)(=O)N2CCN(c3cnccn3)CC2)n1` [Example 199, N-(6-ethylpyridin-2-yl)-4-pyrazin-2-ylpiperazine-1-sulfonamide], the inhibition amounted to 31.3%.

On to `CCc1cccc(NS(=O)(=O)N2CCC(c3cccc(C(=O)Nc4ccccn4)c3)CC2)n1` [Example 73, 3-(1-{[(6-ethylpyridin-2-yl)amino]sulfonyl}pipendin-4-yl)-N-pyridin-2-ylbenzamide], for which the inhibition was determined as 49.6%.

As to `O=S(=O)(Nc1ccc2ccccc2n1)N1CCCN(c2ncccn2)CC1` [Example 163, 4-pyrimidin-2-yl-N-quinolin-2-yl-14-diazepane-1-sulfonamide], the inhibition was 10.5%.

Turning to `Cc1ccc(C2(C)CN(S(=O)(=O)Nc3cccc(C)n3)CCO2)cc1` (stereo not shown) [Example 70, 2-methyl-2-(4-methylphenyl)-N-(6-methylpyridin-2-yl)morpholine-4-sulfonamide], the inhibition was determined as 85.3%.

Turning to `CCc1cccc(NS(=O)(=O)N2CCN(C)CC(COCc3c(F)cccc3F)C2)n1` (stereo not shown) [Example 142, 6-{[(26-difluoro-benzyl)oxy]methyl)-N-(6-ethylpyridin-2-yl)-4-methyl-14-diazepane-1-sulfonamide], the inhibition is 5.9%.

Take `O=S(=O)(Nc1ccc2ccccc2n1)N1CCN(c2cnccn2)CC1` [Example 158, 4-pyrazin-2-yl-N-quinolin-2-ylpiperazine-1-sulfonamide]: the inhibition came out at 44.8%.

Consider `CCc1cccc(NS(=O)(=O)N2Cc3ccccc3C2)n1` [Example 202, N-(6-ethylpyridin-2-yl)-13-dihydro-2H-isoindole-2-sulfonamide], for which the inhibition came to 2.4%.

As for `CCOCC1CCN(S(=O)(=O)Nc2cccc(CC)n2)CC1` [Example 109, 4-(ethoxymethyl)-N-(6-ethylpyridin-2-yl)pipendine-1-sulfonamide], the inhibition is 58.7%.

For `Cc1cccc(NS(=O)(=O)N2CCCCCC2)n1` [Example 130, N-(6-methylpyridin-2-yl)azepane-1-sulfonamide], the inhibition was determined as 56.7%.

As to `COc1cc2c(nn1)CCN(S(=O)(=O)Nc1ccc3ccccc3n1)CC2` [Example 170, 3-methoxy-N-quinolin-2-yl-5689-tetrahydro-7H-pyridazino[34-d]azepine-7-sulfonamide], the inhibition was 21.2%.

On to `CCc1cccc(NS(=O)(=O)N2CCCN(c3ncccn3)CC2)n1` [Example 172, N-(6-ethylpyridin-2-yl)-4-pyrimidin-2-yl-14-diazepane-1-sulfonamide], for which the inhibition was determined as 60.2%.

Take `CCc1cccc(NS(=O)(=O)N2CCN(c3nc4cc(OC)ccc4o3)CC2)n1` [Example 185, N-(6-ethylpyridin-2-yl)-4-(5-methoxy-13-benzoxazol-2-yl)piperazine-1-sulfonamide]: the inhibition turned out to be 48.9%.

In the case of `CC(C)NC(=O)c1ccc(N2CCN(S(=O)(=O)Nc3ccc4ccccc4n3)CC2)nc1` [Example 177, N-isopropyl-6-{4-[(quinolin-2-ylamino)sulfonyl]piperazin-1-yl}nicotinamide], the inhibition was 59.4%.

Take `CCc1cccc(NS(=O)(=O)N2CCC(c3ccc(C(=O)NC)cc3)CC2)n1` [Example 76, 4-(1-{[(6-ethylpyridin-2-yl)amino]sulfonyl}piperidin-4-yl)-N-methylbenzamide]: the inhibition amounted to 34.4%.

In the case of `CCCOC1CCN(S(=O)(=O)Nc2cccc(CC)n2)CC1` [Example 111, N-(6-ethylpyridin-2-yl)-4-propoxypiperidine-1-sulfonamide], the inhibition was found to be 50.8%.

For the compound `Cc1cccc(NS(=O)(=O)N2CCN(c3cc(C#N)ccn3)CC2)n1` [Example 135, 4-(4-cyanopyridin-2-yl)-N-(6-methylpyridin-2-yl)piperazine-1-sulfonamide], the inhibition stood at 29.9%.

`Cc1cccc(NS(=O)(=O)N2CCN(c3nc4ncccc4o3)CC2)n1` [Example 152, N-(6-methylpyridin-2-yl)-4-[13]oxazolo[45-b]pyridin-2-ylpiperazine-1-sulfonamide]: the inhibition is 47.6%.

In the case of `CCc1cccc(NS(=O)(=O)N2CCc3cc(OC)c(OC)cc3C2)n1` [Example 192, N-(6-ethylpyridin-2-yl)-67-dimethoxy-34-dihydroisoquinoline-2(1H)-sulfonamide], the inhibition is 29.4%.

On to `CCc1cccc(NS(=O)(=O)N2CCC(c3ccc(C(=O)NC4CC4)cc3)CC2)n1` [Example 78, N-cyclopropyl-4-(1-{[(6-ethylpyridin-2-yl)amino]sulfonyl}piperi-din-4-yl)benzamide], for which the inhibition stood at 64.2%.

As to `CCc1cccc(NS(=O)(=O)N2CCC(COCc3cccc(OC)c3)CC2)n1` [Example 94, N-(6-ethylpyridin-2-yl)-4-{[(3-methoxybenzyl)oxy]-methyl}pipendine-1-sulfonamide], the inhibition came to 40.7%.

`Cc1cc(CC(C)C)nc(N2CCN(S(=O)(=O)Nc3ccc4ccccc4n3)CC2)n1` [Example 175, 4-(4-isobutyl-6-methyl-pyrimidin-2-yl)-N-quinolin-2-ylpiperazine-1-sulfonamide]: the inhibition came out at 50%.

For `CCc1cccc(NS(=O)(=O)N2CCN(c3cc(C#N)ccn3)CC2)n1` [Example 184, 4-(4-cyanopyridin-2-yl)-N-(6-ethylpyridin-2-yl)piperazine-1-sulfonamide], the inhibition was 16.8%.

With `CCc1cccc(NS(=O)(=O)N2CCC(Oc3ccc(C#N)cc3OC)CC2)n1` [Example 110, 4-(4-cyano-2-methoxy-phenoxy)-N-(6-ethylpyridin-2-yl)piperidine-1-sulfonamide], the inhibition was found to be 8%.

`CCc1cccc(NS(=O)(=O)N2CCN(c3cc(C)nc(C)c3)CC2)n1` [Example 188, 4-(26-dimethylpyridin-4-yl)-N-(6-ethylpyridin-2-yl)piperazine-1-sulfonamide]: the inhibition came to 5.5%.

The values are drawn from patent US20070027118A1 (priority 2005, published 2007).
